Literature values, collected in US7575866B2, “Ligand/binding partner bio-labeling systems” (priority 2003, dated 2009).

What was measured:
[1] = target: T1, Mycobacterium avium DHFR (Mycobacterium avium, UniProt O30463)
T1 sequence (O30463 1-181): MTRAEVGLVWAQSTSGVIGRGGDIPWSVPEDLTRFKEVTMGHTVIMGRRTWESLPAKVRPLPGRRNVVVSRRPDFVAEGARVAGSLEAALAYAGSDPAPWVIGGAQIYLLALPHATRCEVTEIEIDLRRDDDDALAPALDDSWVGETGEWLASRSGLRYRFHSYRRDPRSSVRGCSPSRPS

[2] = tested on: DHFR
[3] = tested on: human leukocytes
[4] = tested on: human cells

Molecule: 2,4-diamino-5-[(2-methoxy-4-carboxybutyloxy)benzyl]pyrimidine
- selective binding to Mycobacterium avium DHFR [1]: selectively bind

Molecule: CCCCc1c(CN(C)c2ccc(C(=O)N[C@@H](CCC(=O)O)C(=O)O)cc2)cnc2nc(N)nc(N)c12 [5-butyl-5-deazamethotrexate]
- inhibitory effect on DHFR lowered relative to MTX [2]: 17 fold

Molecule: CN(Cc1cnc2nc(N)nc(N)c2n1)c1ccc(C(=O)N[C@@H](CCC(=O)O)C(=O)O)cc1 [MTX, Methotrexate]
- concentration at which toxicity observed [3]: 2000 nM
- extracellular concentration at which DNA damage has been observed [4]: 10 µM
